# Experiment: Phase 1 first-in-human study (NCT04178902): safety
# Format: in vivo
# Text: This FIH study (NCT04178902) for ABBV-467 was a multicenter, open-label, dose-escalation study enrolling patients aged ≥18 years who had R/R MM, with the option to enroll R/R AML once recommended phase 2 dose (RP2D) was established. The study design was originally planned to consist of 2 parts: dose escalation and dose expansion, including a minimum of 6 patients treated during dose escalation at what was ultimately to be declared the RP2D. Patients must have received 3 or more prior lines of therapy including at least 1 or more immunomodulatory agents, 1 or more proteasome inhibitors, and 1 or more anti-CD38 monoclonal antibodies. Other eligibility criteria included: Eastern Cooperative Oncology Group performance status ≤2, measurable disease as defined by International Myeloma Working Group (IMWG) consensus criteria, an echocardiogram with an ejection fraction ≥50%, and adequate hematologic, hepatic, and renal function. The prespecified primary objectives were to characterize the safety and toxicity profiles, to establish the RP2D, and to determine the pharmacokinetic (PK) profile of ABBV-467 monotherapy. Safety evaluations included, but were not limited to, adverse event (AE) monitoring, physical examinations, vital sign measurements, electrocardiogram (ECG), cardiac enzyme monitoring, and clinical laboratory testing (hematology and chemistry) as a measure of safety and tolerability for the entire study duration. Parameters used to determine PK included maximum observed plasma concentration (Cmax), terminal elimination half-life (t1/2), area under the plasma concentration-time curve (AUC) from time 0 to time of last measurable concentration (AUCt), AUC from time 0 to infinity (AUC0-∞), and clearance using non-compartmental methods. Secondary objectives were preliminary evaluation of the efficacy of ABBV-467 in R/R MM and R/R AML. Preliminary efficacy endpoints were overall response rate (ORR), clinical benefit rate (CBR), and duration of response (DOR) as evaluated per adapted IMWG[36] criteria for MM and per adapted International Working Group (IWG)[37] and European Leukemia Net (ELN)[38] criteria for AML.
# ABBV-467 was administered as an IV infusion once weekly, for each 28-day cycle over at least a 30-minute period beginning on day 1 of cycle 1. The first infusion was given at half the target dose level. Dosing increased from patient cohort to patient cohort; the escalation was guided by a Bayesian optimal interval design[39] on the basis of the cumulative number of patients who experienced a dose-limiting toxicity (DLT) at a given ABBV-467 dose level. The DLT observation period was defined as the first treatment cycle (cycle 1). AEs of any grade resulting in discontinuation of study drug or missing any dose as a result of toxicity unexplained by underlying disease will be considered a DLT. Any AE of grade 3 or higher will be considered a DLT, unless toxicity can solely be attributed to the underlying disease, with the following clarifications. A non-hematologic DLT was defined as: grade 3 mucositis, nausea, vomiting, or diarrhea that required total parenteral nutrition, tube feeding, or hospitalization lasting >72 h; any grade 4 non-hematologic laboratory abnormality; and any instance of an AE that met the definition of Hy’s Law.
# Blood samples for plasma ABBV-467 concentration analysis were collected on days 1, 2, 3, and 15–17 of cycle 1 as well as on days 1 of cycles for PK analysis. Plasma samples of ABBV-467 were quantified using a validated LC-tandem MS with a lower limit of detection of 3 ng/mL. ABBV-467 PK parameters were calculated using standard non-compartmental approaches with Phoenix, WinNonlin (Version 8.0, Certara). AE severity was graded according to the National Cancer Institute Common Terminology Criteria for Adverse Events v5.0 for up to 30 days after the last dose. Analyses of AEs will include only treatment-emergent AEs. Triplicate ECGs were performed on days 1, 2, 15, and 16 of cycle 1. […]
smiles,measurement,setting,value
Cc1c(Cl)c2c(Cl)c(C)c1-c1c(-c3ccc(F)cc3)sc3ncnc(c13)O[C@@H](C(=O)O)Cc1cc(ccc1OCc1ccnc(-c3ccc(OC[C@H]4COCCO4)cc3)n1)OC[C@@H](CN1CCN(C)CC1)O2 [ABBV-467],"Any AE, n (%)",0.32 mg/kg (n = 2),2 (100) n (%)
same,TEAE: Anemia,0.32 mg/kg (n = 2),1 (50) n (%)
same,TEAE: Arthralgia,0.32 mg/kg (n = 2),0 n (%)
same,TEAE: Arthritis,0.32 mg/kg (n = 2),0 n (%)
same,TEAE: Diarrhea,0.32 mg/kg (n = 2),1 (50) n (%)
same,TEAE: Febrile neutropenia,0.32 mg/kg (n = 2),0 n (%)
same,TEAE: Gastritis,0.32 mg/kg (n = 2),0 n (%)
same,TEAE: Increased alanine aminotransferase,0.32 mg/kg (n = 2),0 n (%)
same,TEAE: Increased amylase,0.32 mg/kg (n = 2),0 n (%)
same,TEAE: Increased aspartate aminotransferase,0.32 mg/kg (n = 2),0 n (%)
same,TEAE: Increased troponin I,0.32 mg/kg (n = 2),1 (50) n (%)
same,TEAE: Increased troponin T,0.32 mg/kg (n = 2),0 n (%)
same,TEAE: Malaise,0.32 mg/kg (n = 2),1 (50) n (%)
same,TEAE: Nausea,0.32 mg/kg (n = 2),0 n (%)
same,TEAE: Neutropenia,0.32 mg/kg (n = 2),0 n (%)
same,TEAE: Pain in extremity,0.32 mg/kg (n = 2),0 n (%)
same,TEAE: Pelvic pain,0.32 mg/kg (n = 2),0 n (%)
same,TEAE: Vitreous floaters,0.32 mg/kg (n = 2),0 n (%)
same,"Any AE, n (%)",0.53 mg/kg (n = 3),3 (100) n (%)
same,TEAE: Anemia,0.53 mg/kg (n = 3),0 n (%)
same,TEAE: Arthralgia,0.53 mg/kg (n = 3),0 n (%)
same,TEAE: Arthritis,0.53 mg/kg (n = 3),0 n (%)
same,TEAE: Diarrhea,0.53 mg/kg (n = 3),0 n (%)
same,TEAE: Febrile neutropenia,0.53 mg/kg (n = 3),0 n (%)
same,TEAE: Gastritis,0.53 mg/kg (n = 3),0 n (%)
same,TEAE: Increased alanine aminotransferase,0.53 mg/kg (n = 3),1 (33) n (%)
same,TEAE: Increased amylase,0.53 mg/kg (n = 3),1 (33) n (%)
same,TEAE: Increased aspartate aminotransferase,0.53 mg/kg (n = 3),2 (67) n (%)
same,TEAE: Increased troponin I,0.53 mg/kg (n = 3),1 (33) n (%)
same,TEAE: Increased troponin T,0.53 mg/kg (n = 3),1 (33) n (%)
same,TEAE: Malaise,0.53 mg/kg (n = 3),0 n (%)
same,TEAE: Nausea,0.53 mg/kg (n = 3),0 n (%)
same,TEAE: Neutropenia,0.53 mg/kg (n = 3),0 n (%)
same,TEAE: Pain in extremity,0.53 mg/kg (n = 3),0 n (%)
same,TEAE: Pelvic pain,0.53 mg/kg (n = 3),0 n (%)
same,TEAE: Vitreous floaters,0.53 mg/kg (n = 3),0 n (%)
same,dose-limiting toxicity,"1 patient, grade 3 treatment-related troponin I elevation leading to discontinuation",classified as a DLT
same,patients with grade 3 TEAEs,N = 8,3 patients
same,patients with treatment-related AEs,N = 8,63%
same,"Any AE, n (%)",Total (N = 8),7 (88) n (%)
same,TEAE: Anemia,Total (N = 8),1 (13) n (%)
same,TEAE: Arthralgia,Total (N = 8),1 (13) n (%)
same,TEAE: Arthritis,Total (N = 8),1 (13) n (%)
same,TEAE: Diarrhea,Total (N = 8),2 (25) n (%)
same,TEAE: Febrile neutropenia,Total (N = 8),1 (13) n (%)
same,TEAE: Gastritis,Total (N = 8),1 (13) n (%)
same,TEAE: Increased alanine aminotransferase,Total (N = 8),1 (13) n (%)
same,TEAE: Increased amylase,Total (N = 8),1 (13) n (%)
same,TEAE: Increased aspartate aminotransferase,Total (N = 8),2 (25) n (%)
same,TEAE: Increased troponin I,Total (N = 8),2 (25) n (%)
same,TEAE: Increased troponin T,Total (N = 8),2 (25) n (%)
same,TEAE: Malaise,Total (N = 8),1 (13) n (%)
same,TEAE: Nausea,Total (N = 8),2 (25) n (%)
same,TEAE: Neutropenia,Total (N = 8),1 (13) n (%)
same,TEAE: Pain in extremity,Total (N = 8),1 (13) n (%)
same,TEAE: Pelvic pain,Total (N = 8),1 (13) n (%)
same,TEAE: Vitreous floaters,Total (N = 8),1 (13) n (%)
same,cardiac disorders,any dose cohort,No cardiac disorders of any grade
same,grade 5 toxicities,any dose cohort,no grade 5 toxicities

# From article PMC10600239, “Selective MCL-1 inhibitor ABBV-467 is efficacious in tumor models but is associated with cardiac troponin increases in patients” (Communications Medicine, 2023)
